# Laboratory results published in patent US5061690A, “Method for increasing milk production in mammals and/or increasing the birth weight of their newborn and improving postnatal growth” (Institut National de la Recherche Agronomique, priority 1987, dated 1991).
# “Also recorded” adds a separate entry of the source. Like-named read-outs stand apart in the source and are kept apart here.
# B1: bGH: bovine growth hormone obtained by genetic recombination (protein, UniProt P01246 27-217, looked up)
# Somatotropin: AFPAMSLSGLFANAVLRAQHLHQLAADTFKEFERTYIPEGQRYSIQNTQVAFCFSETIPAPTGKNEAQQKSDLELLRISLLLIQSWLGPLQFLSRVFTNSLVFGTSDRVYEKLKDLEEGILALMRELEDGTPRAGQILKQTYDKFDTNMRSDDALLKNYGLLSCFRKDLHKTETYLRVMKCRRFGEASCAF
# Experiments:
# multiparous gravid ewes [1] = assay: hGRF (1-29) on completion of two-thirds and/or at end of gestation in ewes: birth weight and growth of lambs; assay type: in vivo; details: for Weight of the Lambs at 30 days: control 12.12 ± 0.7 kg
# Description: 48 multiparous gravid ewes were distributed in four batches of 12 ewes each, account being taken of the earlier milk productions and of the anticipated parity (OCS--Ovine Chorionic Somatotropin--assay). The first batch forms the control batch, the ewes receiving no treatment. The other three batches receive 1.5 mg of hGRF (1-29) subcutaneously twice daily; from day 105 to day 115 of gestation for the second batch, which will be designated hereinafter as batch "GRF1"; from day 137 of gestation to littering for the third batch, which will be designated hereinafter as batch "GRF2"; and from day 105 to day 115 of gestation and from day 137 of gestation to littering for the fourth batch, which will be designated hereinafter as batch "GRF1+2". As in the above study, the administration of hGRF (1-29) is stopped as soon as parturition takes place, and lambing is induced by the administration of dexamethasone on day 145 of gestation, under the conditions described above. After parturition, the milk production of the ewes was measured twice daily, and the growth of the lambs, which received an artificial milk-feed supplied "ad libitum", was followed, the lambs receiving no growth adjuvant treatment. The analysis concerned only twin lambs, distributed as follows: At the age of 30 days, after variance analysis taking birth weight as covariable, a larger growth of all the lambs born of the mothers of batch GRF2 was observed. This is shown in FIG. 3, which is an illustration similar to that of FIG. 4, enabling the weights of the lambs born of the mothers of the four batches to be compared at the age of 30 days. Table 1 below complements this FIG. 3.
# gravid ewes [2] = assay type: in vivo
# Description: (§1) 30 gravid ewes which were at the 135th day of gestation were distributed in two batches of 15 ewes each, account being taken of the number of fetuses assumed to be present in the uteri and of the earlier milk outputs, all the ewes being multiparous. Batch A, which receives no treatment, serves as control batch. Batch B receives 1.5 mg of hGRF (1-29) (equivalent to approximately 20 μg per kg of body weight) subcutaneously twice daily, at 8.00 hours and 14.00 hours, from day 137 of gestation up to the day of littering (which varied between day 145 and day 147, depending on the ewe). The administration of hGRF (1-29) is stopped as soon as parturition takes place. In all the animals, lambing is induced by the administration of 9 α-fluoro-11β,17α,21-trihydroxy-16α-methyl-1,4-pregnadiene-3,20-dione (proposed under the INN of dexamethasone) on the basis of 16 mg intramuscularly at 20.00 hours on day 144 of gestation. The birth weights of the lambs born of mothers of the two batches A and B were compared.
# gravid ewes [3] = assay: OGH (growth hormone) assay in gravid ewes given hGRF (1-29) at the end of gestation; assay type: in vivo; details: batch B
# Description: as §1, with “[…] This discharge is the same in nature after the morning injection and after that” for “The birth weights”, “afternoon. […] This is shown in FIG. 1” for “lambs born of mothers”, “attached drawings, which represents the OGH hormone assay in terms of the time of day (mean over 15 ewes) on day 138” for “two batches A”, “on day 146 of gestation.” for “B were compared.”
# multiparous gravid ewes [4] = assay: hGRF (1-29) on completion of two-thirds and/or at end of gestation in ewes: milk production; assay type: in vivo
# Description: 48 multiparous gravid ewes were distributed in four batches of 12 ewes each, account being taken of the earlier milk productions and of the anticipated parity (OCS--Ovine Chorionic Somatotropin--assay). The first batch forms the control batch, the ewes receiving no treatment. The other three batches receive 1.5 mg of hGRF (1-29) subcutaneously twice daily; from day 105 to day 115 of gestation for the second batch, which will be designated hereinafter as batch "GRF1"; from day 137 of gestation to littering for the third batch, which will be designated hereinafter as batch "GRF2"; and from day 105 to day 115 of gestation and from day 137 of gestation to littering for the fourth batch, which will be designated hereinafter as batch "GRF1+2". As in the above study, the administration of hGRF (1-29) is stopped as soon as parturition takes place, and lambing is induced by the administration of dexamethasone on day 145 of gestation, under the conditions described above. After parturition, the milk production of the ewes was measured twice daily, and the growth of the lambs, which received an artificial milk-feed supplied "ad libitum", was followed, the lambs receiving no growth adjuvant treatment. After a variance analysis, taking the earlier production as covariable, and after correction taking into account the parity (number of lambs per pregnancy) during the lactation in progress and during the reference lactation, the results for the milk production were compared between the control batches and batches "GRF1" and "GRF2". From the results obtained over five weeks of lactation, the curves of FIGS. 4 and 5 were plotted, the source data being reported in Table 2 below.
# dairy cows = details: cited from earlier work; for milk production increased: milk adjusted to fat content 3.5%
# [5] = 1.5 mg s.c. twice daily from day 137 of gestation to littering
molecule,measurement,setting,value
"hGRF (1-29): form of human growth hormone releasing factor containing 29 amino acids, obtained after deletion of the C-terminal portion",Weight of the Lambs at 30 days,"multiparous gravid ewes [1]; batch GRF1+2: day 105 to 115 and day 137 to littering, 10 lambs",13 ± 0.66 kg
same,birth weight of the lambs versus control,"multiparous gravid ewes [1]; batch GRF1+2: day 105 to 115 and day 137 to littering, twin lambs n=12",substantially similar
same,Weight of the Lambs at 30 days,"multiparous gravid ewes [1]; batch GRF1: day 105 to 115 of gestation, 14 lambs",13.6 ± 0.5 kg
same,birth weight of the lambs versus control,"multiparous gravid ewes [1]; batch GRF1: day 105 to day 115 of gestation, twin lambs n=16",substantially similar; also recorded: of the same order
same,mean birth weight of the lambs,"multiparous gravid ewes [1]; batch GRF2: day 137 of gestation to littering, twin lambs n=12, control 2.91 kg",3.54 kg
same,Weight of the Lambs at 30 days,"multiparous gravid ewes [1]; batch GRF2: day 137 to littering, 12 lambs",14.73 ± 0.53 kg
same,excess of lamb growth at 30 days over lambs of control mothers,multiparous gravid ewes [1]; ewes treated between days 105 and 115 of gestation (GRF1),~11%
same,excess of lamb weight at 30 days over the controls,"multiparous gravid ewes [1]; mothers treated between days 137 and 147 of gestation (GRF2), corrected for birth weight",21%
same,birth weight of the lambs born of treated mothers,"gravid ewes [2]; batch B, n=20, 1.5 mg s.c. twice daily day 137 to littering, control batch A 3.61±0.14 kg",4.17 ± 0.13 kg
same,effect on dates of the lambing (parturition),gravid ewes [2]; in vivo,not modifying the dates of the lambing
same,discharge of growth hormone (GH),gravid ewes [3]; [5],of large magnitude
same,duration of the discharge of growth hormone after the subcutaneous injection,gravid ewes [3]; [5],approximately 5 hours
same,"GH response, day 146 versus day 138 of gestation","gravid ewes [3]; mean over 15 ewes, FIG. 1",magnified as the term of the pregnancy is approached
same,milk production greater than that of the control ewes,"multiparous gravid ewes [4]; batch GRF1 (days 105 to 115 of gestation), fifth week of lactation",more than 23%
same,Milk production,"multiparous gravid ewes [4]; batch GRF1, week of lactation 1, FIG. 4, control 980 ± 70",1075 ± 50
same,Milk production,"multiparous gravid ewes [4]; batch GRF1, week of lactation 2, FIG. 4, control 950 ± 60",1090 ± 70
same,Milk production,"multiparous gravid ewes [4]; batch GRF1, week of lactation 3, FIG. 4, control 845 ± 50",1025 ± 60
same,Milk production,"multiparous gravid ewes [4]; batch GRF1, week of lactation 4, FIG. 4, control 760 ± 45",920 ± 60
same,Milk production,"multiparous gravid ewes [4]; batch GRF1, week of lactation 5, FIG. 4, control 720 ± 50",880 ± 50
same,Milk production,"multiparous gravid ewes [4]; batch GRF2, week of lactation 1, FIG. 5, control 1020 ± 50",1050 ± 60
same,Milk production,"multiparous gravid ewes [4]; batch GRF2, week of lactation 2, FIG. 5, control 1025 ± 60",1010 ± 50
same,Milk production,"multiparous gravid ewes [4]; batch GRF2, week of lactation 3, FIG. 5, control 975 ± 50",855 ± 50
same,Milk production,"multiparous gravid ewes [4]; batch GRF2, week of lactation 4, FIG. 5, control 925 ± 50",840 ± 40
same,Milk production,"multiparous gravid ewes [4]; batch GRF2, week of lactation 5, FIG. 5, control 860 ± 50",745 ± 60
B1,milk production increased,dairy cows; 12.5 mg bGH per day,16%
same,nutritional efficiency (kg milk with 3.5% fat per kg dry matter ingested) increased,dairy cows; 12.5 mg bGH/day for a long period,13.8%
same,milk production increased,dairy cows; 25 mg bGH per day,19%
same,nutritional efficiency (kg milk with 3.5% fat per kg dry matter ingested) increased,dairy cows; 25 mg bGH/day for a long period,16.8%
same,milk production increased,dairy cows; 50 mg bGH per day,22%
same,nutritional efficiency (kg milk with 3.5% fat per kg dry matter ingested) increased,dairy cows; 50 mg bGH/day for a long period,15.3%
